Data set [1] in a line: Light stability (photobleaching) of the endoperoxide under continuous excitation light. It is filed as physicochemical. The settings on record: 5.0 μM aqueous solution, 0.1 M phosphate buffer (pH 7.4), 0.1% DMSO, excitation light 491 nm, 37° C., fluorescence at 520 nm. The procedure: 5.0 μM aqueous solutions of DMAX-EP (endoperoxide of Compound 11 in the above scheme) and DPAX-1-EP (endoperoxide of Compound 13 described in International Patent Publication WO99/51586, Example 1) [0.1 M phosphate buffer (pH 7.4) containing 0.1% DMSO as a cosolvent]were each placed in a fluorescent cell and exposed to an excitation light of 491 nm at 37° C. with stirring, and fluorescence was measured at 520 nm by using a fluorometer while the solution was continuously exposed to the excitation light.

Data set [2] in a line: Measurement of singlet oxygen generated by naphthalene endoperoxide EP-1 (fluorescence). How it is done: Singlet oxygen was generated continuously with time under a neutral condition at 37° C. in given amounts by using a naphthalene endoperoxide compound EP-1 (Saito, I, et al., J. Am. Chem. Soc., 107, pp. 6329-6334, 1985) as a singlet oxygen generation system. Fluorescence was measured in the presence of DMAX and DPAX-1 [100 mM phosphate buffer (pH 7.4), DMSO (0.1%)].

On to `CC12OOC(C)(c3ccccc31)c1cc(-c3c4ccc(=O)cc-4oc4cc(O)ccc34)c(C(=O)O)cc12` (stereo not shown) [DMAX-EP], for which, in data set [1], the “Photobleaching, times slower than that of DPAX-1-EP” value is 54 times.
For `Cc1c2ccccc2c(C)c2cc(-c3c4ccc(=O)cc-4oc4cc(O)ccc34)c(C(=O)O)cc12` [DMAX], the “Increase of fluorescence intensity with 0.5 mM EP-1 compared with 10 mM EP-1 in the presence of DPAX-1” value in data set [2] (100 mM phosphate buffer (pH 7.4), DMSO (0.1%), 37° C.) was “far larger”. In data set [2] (EP-1 increased from 0.1 mM to 0.5 mM and to 1.0 mM, 100 mM phosphate buffer (pH 7.4), DMSO (0.1%), 37° C.), the “Fluorescence intensity on generation of singlet oxygen” value is recorded as “increase of fluorescence intensity dependent on the generated amount of singlet oxygen”. The “Sensitivity for singlet oxygen compared with DPAX-1” value in data set [2] (EP-1 singlet oxygen generation system, pH 7.4, 37° C.) is “much higher sensitivity”.
